Target: T1, AAK1 (Homo sapiens, UniProt Q2M2I8)
T1 construct: NP_055726.2
Experiment: P81 filter plate assay
Type: biochemical
Conditions: full-length human AAK1, Mu2 substrate, 33P-ATP
Protocol: Compounds were serially diluted into a Labcyte LDV plate (Labcyte, cat#LP-0200) using a Mutiprobe (PerkinElmer) and Biomek FX (Beckman Coulter) so that the highest compound concentration was at 96 μM. Compounds were then pinged (75 nL per well) into a Greiner 384-well reaction plate (Greiner, #781076) using an ECHO 550 Liquid Handler (Labcyte). A total of 12 μl reaction buffer (IMAP buffer containing Tween and DTT, from Molecular Devices) was then added to each well of columns 1 and 13 for the negative controls and 12 μl of 2× AAK1 (0.2 nM full-length human protein, NCBI accession no. NP_055726.2) was added to the remaining wells. Enzyme was then pre-incubated with compound for 10 minutes at RT. Reactions were initiated upon Minitrak (PerkinElmer) addition of 12 μl substrate mix containing 2× Mu2 (0.2 μM, full length human protein), 2× cold ATP (2 μM), and 1.3 μCi of hot ^33P-ATP. […] proceeded for one hour at RT. Meanwhile, Millipore 384-well P81 filter plates (Millipore, catalog #MZPHNOW10) were placed on a plate washer (Zoom ZW, from Titertek) and pre-wet with 50 μl 1% phosphoric acid. Kinase reactions were then stopped upon addition of 24 μl of 2% phosphoric acid to each well and the Minitrak was then used to transfer 40 μl from each well into the pre-wet Millipore 384-well P81 filter plates. Reaction mixtures were incubated for 10 minutes at RT in the P81 plates, followed by washing five times with 100 μl/well of 1% phosphoric acid using the Zoom filter washer. The bottom of each filter plate was sealed followed by addition of 20 μl Microscint 40 to each well, sealing the top of the plates with Flashplate cover, and then waiting one hour until reading on the TopCount (PerkinElmer).

T1 sequence (Q2M2I8 1-863 isoform Q2M2I8-2): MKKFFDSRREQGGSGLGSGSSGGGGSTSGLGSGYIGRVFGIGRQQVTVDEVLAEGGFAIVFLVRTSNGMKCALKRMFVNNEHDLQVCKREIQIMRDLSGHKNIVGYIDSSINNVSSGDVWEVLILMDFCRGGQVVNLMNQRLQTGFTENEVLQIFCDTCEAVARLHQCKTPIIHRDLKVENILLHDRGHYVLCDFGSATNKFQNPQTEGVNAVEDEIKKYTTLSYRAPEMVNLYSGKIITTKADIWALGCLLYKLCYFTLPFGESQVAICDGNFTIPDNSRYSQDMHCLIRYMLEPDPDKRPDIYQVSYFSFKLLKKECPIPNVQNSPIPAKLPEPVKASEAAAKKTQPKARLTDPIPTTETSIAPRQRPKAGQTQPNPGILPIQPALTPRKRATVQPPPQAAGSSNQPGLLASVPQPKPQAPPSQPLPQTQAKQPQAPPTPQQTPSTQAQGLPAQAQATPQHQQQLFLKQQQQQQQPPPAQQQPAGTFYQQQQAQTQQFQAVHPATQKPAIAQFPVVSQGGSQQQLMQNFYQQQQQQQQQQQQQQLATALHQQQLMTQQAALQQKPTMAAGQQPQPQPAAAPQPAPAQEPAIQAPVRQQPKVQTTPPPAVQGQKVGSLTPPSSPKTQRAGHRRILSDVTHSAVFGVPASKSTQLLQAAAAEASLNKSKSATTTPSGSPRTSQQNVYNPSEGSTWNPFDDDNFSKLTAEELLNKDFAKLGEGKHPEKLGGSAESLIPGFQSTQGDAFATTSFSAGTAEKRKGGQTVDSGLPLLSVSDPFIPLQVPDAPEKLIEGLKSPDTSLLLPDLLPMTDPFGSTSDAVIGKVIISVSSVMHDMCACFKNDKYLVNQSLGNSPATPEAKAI

IC50 [nM] | SMILES
≤ 100 | FC(F)(F)CN1CCN(c2ccn3ncc(Br)c3n2)CC1 [3-bromo-5-(4-(2,2,2-trifluoroethyl)piperazin-1-yl)pyrazolo[1,5-a]pyrimidine]
≤ 100 | COc1cc(-c2cnn3ccc(N4CCN(C(=O)OC(C)C)CC4)nc23)ccn1 [isopropyl 4-(3-(2-methoxypyridin-4-yl)pyrazolo[1,5-a]pyrimidin-5-yl)piperazine-1-carboxylate]
≤ 100 | COc1ccc(-c2cnn3ccc(N4CCN(C(=O)OC(C)C)CC4)nc23)c(F)n1 [isopropyl 4-(3-(2-fluoro-6-methoxypyridin-3-yl)pyrazolo[1,5-a]pyrimidin-5-yl)piperazine-1-carboxylate]
≤ 100 | COc1ncc(C)cc1-c1cnn2ccc(N(C)CCN(C)C(=O)OC(C)C)nc12 [isopropyl (2-((3-(2-methoxy-5-methylpyridin-3-yl)pyrazolo[1,5-a]pyrimidin-5-yl)(methyl)amino)ethyl)(methyl)carbamate]
≤ 100 | CCOCCOC(=O)N1CCN(c2ccn3ncc(-c4cccnc4OC)c3n2)CC1 [2-ethoxyethyl 4-(3-(2-methoxypyridin-3-yl)pyrazolo[1,5-a]pyrimidin-5-yl)piperazine-1-carboxylate]
≤ 100 | COc1nc(C)ccc1-c1cnn2ccc(N3CCN(CC(F)(F)F)CC3)nc12 [3-(2-methoxy-6-methylpyridin-3-yl)-5-(4-(2,2,2-trifluoroethyl)piperazin-1-yl)pyrazolo[1,5-a]pyrimidine]
≤ 100 | [2H]C1([2H])N(C(=O)OC(C)(C)C)C([2H])([2H])C([2H])([2H])N(c2ccn3ncc(Br)c3n2)C1([2H])[2H] [tert-butyl 4-(3-bromopyrazolo[1,5-a]pyrimidin-5-yl)-d8-piperazine-1-carboxylate]
≤ 100 | CC(C)OC(=O)N1CCN(c2ccn3ncc(-c4cccnc4N)c3n2)CC1 [isopropyl 4-(3-(2-aminopyridin-3-yl)pyrazolo[1,5-a]pyrimidin-5-yl)piperazine-1-carboxylate]
≤ 100 | COC(=O)COC(=O)N1CCN(c2ccn3ncc(-c4cccnc4OC)c3n2)CC1 [2-methoxy-2-oxoethyl 4-(3-(2-methoxypyridin-3-yl)pyrazolo[1,5-a]pyrimidin-5-yl)piperazine-1-carboxylate]
≤ 100 | CC(C)C[C@H](N)C(=O)N1CCN(c2ccn3ncc(Cl)c3n2)CC1 [(S)-2-amino-1-(4-(3-chloropyrazolo[1,5-a]pyrimidin-5-yl)piperazin-1-yl)-4-methylpentan-1-one]
≤ 100 | CCO/C=C/c1cnn2ccc(N3CCN(C(=O)OC(C)C)CC3)nc12 [(E)-isopropyl 4-(3-(2-ethoxyvinyl)pyrazolo[1,5-a]pyrimidin-5-yl)piperazine-1-carboxylate]
≤ 1000 | CC(C)OC(=O)N1CCN(c2ccn3ncc(C(F)(F)F)c3n2)CC1 [isopropyl 4-(3-(trifluoromethyl)pyrazolo[1,5-a]pyrimidin-5-yl)piperazine-1-carboxylate]
≤ 10 | COCCOC(=O)N1CCN(c2ccn3ncc(-c4cccnc4OC)c3n2)CC1 [2-methoxyethyl 4-(3-(2-methoxypyridin-3-yl)pyrazolo[1,5-a]pyrimidin-5-yl)piperazine-1-carboxylate]
≤ 100 | CC(C)OC(=O)N1CCN(c2ccn3ncc(-c4cccc5nccn45)c3n2)CC1 [isopropyl 4-(3-(imidazo[1,2-a]pyridin-5-yl)pyrazolo[1,5-a]pyrimidin-5-yl)piperazine-1-carboxylate]
≤ 100 | COCC(COC)OC(=O)N1CCN(c2ccn3ncc(-c4cccnc4OC)c3n2)CC1 [1,3-dimethoxypropan-2-yl 4-(3-(2-methoxypyridin-3-yl)pyrazolo[1,5-a]pyrimidin-5-yl)piperazine-1-carboxylate]
≤ 10 | COc1ncccc1-c1cnn2ccc(N(C)CCN(C)C(=O)[C@@H](N)CC(C)C)nc12 [(S)-2-amino-N-(2-((3-(2-methoxypyridin-3-yl)pyrazolo[1,5-a]pyrimidin-5-yl)(methyl)amino)ethyl)-N,4-dimethylpentanamide]

IC50 [nM] | SMILES
≤ 100 | CC(C)OC(=O)N1CCN(c2ccn3ncc(-c4cccc5[nH]cnc45)c3n2)CC1 [isopropyl 4-(3-(1H-benzo[d]imidazol-4-yl)pyrazolo[1,5-a]pyrimidin-5-yl)piperazine-1-carboxylate]
≤ 100 | COc1ncccc1-c1cnn2ccc(-n3cnc(CO)c3)nc12 [(1-(3-(2-methoxypyridin-3-yl)pyrazolo[1,5-a]pyrimidin-5-yl)-1H-imidazol-4-yl)methanol]
≤ 100 | COCCOCCOC(=O)N1CCN(c2ccn3ncc(-c4cccnc4OC)c3n2)CC1 [2-(2-methoxyethoxy)ethyl 4-(3-(2-methoxypyridin-3-yl)pyrazolo[1,5-a]pyrimidin-5-yl)piperazine-1-carboxylate]
≤ 10 | CCOc1ncccc1-c1cnn2ccc(N3CCN(C(=O)OCCOC)CC3)nc12 [2-methoxyethyl 4-(3-(2-ethoxypyridin-3-yl)pyrazolo[1,5-a]pyrimidin-5-yl)piperazine-1-carboxylate]
≤ 100 | COCCOc1ncccc1-c1cnn2ccc(N3CCN(C(=O)OC(C)C)CC3)nc12 [isopropyl 4-(3-(2-(2-methoxyethoxy)pyridin-3-yl)pyrazolo[1,5-a]pyrimidin-5-yl)piperazine-1-carboxylate]
≤ 10 | CCOc1ncccc1-c1cnn2ccc(N3CCN(C(=O)OC(C)C)CC3)nc12 [isopropyl 4-(3-(2-ethoxypyridin-3-yl)pyrazolo[1,5-a]pyrimidin-5-yl)piperazine-1-carboxylate]
≤ 100 | COc1c(F)cccc1-c1cnn2ccc(N3CCN(C(=O)OC(C)C)CC3)nc12 [isopropyl 4-(3-(3-fluoro-2-methoxyphenyl)pyrazolo[1,5-a]pyrimidin-5-yl)piperazine-1-carboxylate]
≤ 100 | Cc1ncccc1-c1cnn2ccc(N3CCN(C(=O)OC(C)C)CC3)nc12 [isopropyl 4-(3-(2-methylpyridin-3-yl)pyrazolo[1,5-a]pyrimidin-5-yl)piperazine-1-carboxylate]
≤ 1000 | COc1ncccc1-c1cnn2ccc(N3CCN(CCC(F)(F)F)CC3)nc12 [3-(2-methoxypyridin-3-yl)-5-(4-(3,3,3-trifluoropropyl)piperazin-1-yl)pyrazolo[1,5-a]pyrimidine]
≤ 100 | CSc1ncccc1-c1cnn2ccc(N3CCN(C(=O)OC(C)C)CC3)nc12 [isopropyl 4-(3-(2-(methylthio)pyridin-3-yl)pyrazolo[1,5-a]pyrimidin-5-yl)piperazine-1-carboxylate]
≤ 100 | CC(C)OC(=O)N1CCN(c2ccn3ncc(I)c3n2)CC1 [isopropyl 4-(3-iodopyrazolo[1,5-a]pyrimidin-5-yl)piperazine-1-carboxylate]
≤ 10 | CC(C)(C)OC(=O)N1CCC[C@H]1CNc1ccn2ncc(-c3ccc(C(N)=O)cc3)c2n1 [(S)-tert-butyl 2-(((3-(4-carbamoylphenyl)pyrazolo[1,5-a]pyrimidin-5-yl)amino)methyl)pyrrolidine-1-carboxylate]
≤ 10 | COc1ncc(F)cc1-c1cnn2ccc(N(C)CCCN(C)C(=O)OC(C)C)nc12 [isopropyl (3-((3-(5-fluoro-2-methoxypyridin-3-yl)pyrazolo[1,5-a]pyrimidin-5-yl)(methyl)amino)propyl)(methyl)carbamate]
≤ 1000 | CC(C)C[C@H](N)C(=O)N1CCN(c2ccn3ncc(F)c3n2)CC1 [(S)-2-amino-1-(4-(3-fluoropyrazolo[1,5-a]pyrimidin-5-yl)piperazin-1-yl)-4-methylpentan-1-one]
≤ 100 | CC(C)OC(=O)N1CCN(c2ccn3ncc(Cl)c3n2)CC1 [isopropyl 4-(3-chloropyrazolo[1,5-a]pyrimidin-5-yl)piperazine-1-carboxylate]

SMILES | IC50 [nM]
COc1ncccc1-c1cnn2ccc(N3CCN(C(=O)OCCOC(C)(C)C)CC3)nc12 [2-(tert-butoxy)ethyl 4-(3-(2-methoxypyridin-3-yl)pyrazolo[1,5-a]pyrimidin-5-yl)piperazine-1-carboxylate] | ≤ 10
COc1ncccc1-c1cnn2ccc(NCCOC(C)(C)C)nc12 [N-(2-(tert-butoxy)ethyl)-3-(2-methoxypyridin-3-yl)pyrazolo[1,5-a]pyrimidin-5-amine] | ≤ 10
CC(C)(C)OCCCNc1ccn2ncc(Br)c2n1 [3-bromo-N-(3-(tert-butoxy)propyl)pyrazolo[1,5-a]pyrimidin-5-amine] | ≤ 1000
COc1ncccc1-c1cnn2ccc(N(C)CCCOC(C)(C)C)nc12 [N-(3-(tert-butoxy)propyl)-3-(2-methoxypyridin-3-yl)-N-methylpyrazolo[1,5-a]pyrimidin-5-amine] | ≤ 100
COc1ncccc1-c1cnn2ccc(N3C[C@H]4C[C@@H](C3)N4C(=O)OC(C)(C)C)nc12 [(1R,5S)-tert-butyl 3-(3-(2-methoxypyridin-3-yl)pyrazolo[1,5-a]pyrimidin-5-yl)-3,6-diazabicyclo[3.1.1]heptane-6-carboxylate] | ≤ 100
COc1nc(C)ccc1-c1cnn2ccc(N(C)CCCOC(C)(C)C)nc12 [N-(3-(tert-butoxy)propyl)-3-(2-methoxy-6-methylpyridin-3-yl)-N-methylpyrazolo[1,5-a]pyrimidin-5-amine] | ≤ 100

Source: patent publication US9403832B2, “Pyrazolo[1,5-a]pyrimidine-based compounds, compositions comprising them, and methods of their use” (Lexicon Pharmaceuticals, Inc., priority 2012, dated 2016)
